This is an account of results in patent publication US7803793B2, “Heterocyclic derived metalloprotease inhibitors” (Janssen Pharmaceutica NV, priority 2006, dated 2010).

For assay [1], the target named is T1, MMP-9 (Homo sapiens, UniProt P14780).
T1 construct: Human MMP-9 catalytic domain (aa 107-446)
As to the kind of experiment: MMP enzymatic assay (Trupoint peptide), MMP-9. The assay is classed as biochemical. The method, then:
[formula] • 1) Prepare appropriate 1×MMP assay buffer from 10× stock. […] The plate setup should be as follows, using GM6001 as plate reference compound:
• 6) Serially dilute 10 μl down the plate to achieve 1:3 dilutions in subsequent wells. After each dilution, change pipette tips to avoid compound carryover. […] Will need 10 ml enzyme solution per plate. Add enzyme to plate, 20 μl per well. Incubate 1 hr.
Prepare 5 ml total per plate. Add 10 ul of substrate to each well to achieve a final concentration of 100 nM in well. […] Read in plate reader.
(§1) Analysis Specifications • Calculate average background value from substrate/assay buffer wells • Subtract this from entire plate • Calculate average of DMSO wells for each enzyme. This is the positive control, 100% value. • For each well, calculate percent of control by dividing well value by the average DMSO value obtained above. • Paste percent of control values into Graphpad Prism 4.0.

Assay [2] has as its target T2, MMP-2 (Homo sapiens, UniProt P08253).
T2 construct: Human MMP-2 full length (aa 1-660)
T2 sequence (P08253 30-660): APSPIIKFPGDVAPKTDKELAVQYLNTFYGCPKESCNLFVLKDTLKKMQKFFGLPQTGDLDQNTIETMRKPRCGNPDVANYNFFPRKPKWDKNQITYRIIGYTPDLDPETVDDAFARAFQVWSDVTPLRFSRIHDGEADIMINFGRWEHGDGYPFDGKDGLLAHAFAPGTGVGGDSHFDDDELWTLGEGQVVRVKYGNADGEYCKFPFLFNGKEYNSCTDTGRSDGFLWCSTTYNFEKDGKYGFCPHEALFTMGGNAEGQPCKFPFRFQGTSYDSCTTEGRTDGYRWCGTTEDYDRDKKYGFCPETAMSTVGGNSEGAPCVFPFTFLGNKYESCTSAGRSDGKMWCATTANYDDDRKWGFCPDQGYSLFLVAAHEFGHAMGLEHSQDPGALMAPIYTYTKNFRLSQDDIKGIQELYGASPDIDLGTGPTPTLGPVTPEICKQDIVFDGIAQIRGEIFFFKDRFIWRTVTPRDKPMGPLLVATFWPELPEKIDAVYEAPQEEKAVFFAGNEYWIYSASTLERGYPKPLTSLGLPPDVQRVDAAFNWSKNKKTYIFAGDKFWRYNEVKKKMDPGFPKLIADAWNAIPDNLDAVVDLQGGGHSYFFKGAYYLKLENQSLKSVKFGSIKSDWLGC
As to the kind of experiment: MMP enzymatic assay (Trupoint peptide), MMP-2. It is filed as biochemical. The method, then:
[formula] • 1) Prepare appropriate 1×MMP assay buffer from 10× stock. […] Need to prepare a 2.5× concentration stock (2.5 μM) to achieve this concentration in 50 μl. Dilute compound to 2.5 mM in 100% DMSO (a 1:40 dilution), then dilute the 2.5 mM compound to 2.5 μM (1:1000) into 1× assay buffer. Make 1 ml 2.5 μM compound in assay buffer. • 4) Fill the rows B through P of a 384-well plate with assay buffer+0.1% DMSO. • 5) Add 30 ul of the 2.5 μM compound in assay buffer to the top row of the plate, doing each compound in triplicate. The plate setup should be as follows, using GM6001 as plate reference compound:
• 6) Serially dilute 10 μl down the plate to achieve 1:3 dilutions in subsequent wells. After each dilution, change pipette tips to avoid compound carryover. Discard the remaining 10 μl after diluting into the final row. • 7) Prepare enzyme dilutions at 2.5× of final desired concentration (see below). Will need 10 ml enzyme solution per plate. Add enzyme to plate, 20 μl per well. Incubate 1 hr.
• 8) Dilute the 500 μM Trupoint peptide 1:1000 into assay buffer to achieve a 5× working stock of 500 nM. Prepare 5 ml total per plate. Add 10 ul of substrate to each well to achieve a final concentration of 100 nM in well. Also prepare background subtraction wells by adding 10 μl 5× substrate to 40 μl assay buffer per well, typically do ˜32 wells. • 9) Incubate assay at room temperature for 15 min. Read in plate reader.
as §1

Like-named read-outs stand apart in the source and are kept apart here.

T1 sequence (P14780 107-446): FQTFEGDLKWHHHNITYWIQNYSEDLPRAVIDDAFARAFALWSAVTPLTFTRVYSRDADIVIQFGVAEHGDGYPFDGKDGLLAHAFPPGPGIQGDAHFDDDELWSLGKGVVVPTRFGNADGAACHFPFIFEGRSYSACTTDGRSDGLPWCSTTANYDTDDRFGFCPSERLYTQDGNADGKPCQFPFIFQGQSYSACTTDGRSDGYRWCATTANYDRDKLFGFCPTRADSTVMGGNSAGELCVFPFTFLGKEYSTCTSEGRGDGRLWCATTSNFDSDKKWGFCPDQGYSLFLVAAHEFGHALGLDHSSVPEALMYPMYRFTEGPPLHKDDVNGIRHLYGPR

Take `CN(c1cccn(O)c1=O)S(=O)(=O)c1ccc(Oc2ccc(OC(F)(F)F)cc2)cc1` [Compound 39, N-(1-Hydroxy-2-oxo-1,2-dihydro-pyridin-3-yl)-N-methyl-4-(4-trifluoro-methoxy-phenoxy)-benzenesulfonamide]: the figures for the IC50 in assay [1] and in assay [2] (read-out: MMP-2 nM IC50) were 1.85 nM and 5.75 nM, respectively.
For the compound `CCN(c1cccn(O)c1=O)S(=O)(=O)c1ccc(Oc2ccc(C)cc2)cc1` [Compound 27, N-Ethyl-N-(1-hydroxy-2-oxo-1,2-dihydro-pyridin-3-yl)-4-p-tolyloxy-benzene-sulfonamide], the IC50 (usually the midpoint of a concentration-inhibition curve) in assay [1] came to 3.6 nM; in assay [2], 6.5 nM.
As for `O=c1c(O)cccn1CS(=O)(=O)c1ccc(Br)cc1` [Compound 65, 1-(4-Bromo-benzenesulfonylmethyl)-3-hydroxy-1H-pyridin-2-one], the IC50 in assay [1] and in assay [2] was greater than 1000 nM throughout.
Turning to “1-Hydroxy-3-(4′-trifluoromethoxy-biphenyl-4-sulfonyl)-azepan-2-one [Compound 85]”, the IC50 in assay [1] and in assay [2] (read-out: MMP-2 nM IC50) was greater than 1000 nM throughout.
As for `O=C1C(S(=O)(=O)c2ccc(F)cc2)CCCCN1O` (stereo not drawn) [Compound 79, 3-(4-Fluoro-benzenesulfonyl)-1-hydroxy-azepan-2-one], the IC50 in assay [1] and in assay [2] was greater than 1000 nM in each case.
In the case of `Cc1ccc(Oc2ccc(S(=O)(=O)Nc3cccn(O)c3=O)cc2)cc1` [Compound 38], the results for the IC50 in assay [1] and in assay [2] were 64.6 nM and 49.8 nM, respectively.
`CS(=O)(=O)N(Cc1cccn(O)c1=O)c1ccc(Oc2ccc(C(F)(F)F)cc2)cc1` [Compound 43, N-(1-Hydroxy-2-oxo-1,2-dihydro-pyridin-3-ylmethyl)-N-[4-(4-trifluoromethyl-phenoxy)-phenyl]-methanesulfonamide]: the values for the IC50 in assay [1] and in assay [2] were 233 nM and 491 nM, respectively.
With `N#Cc1ccc2[nH]c(-c3ccc(S(=O)(=O)C4CCCCN(O)C4=O)cc3)nc2c1` (stereo not drawn) [Compound 76, 2-[4-(1-Hydroxy-2-oxo-azepane-3-sulfonyl)-phenyl]-1H-benzimidazole-5-carbonitrile], the IC50 in assay [1] and in assay [2] was greater than 1000 nM in each case.
`O=C1C(N(CCN2CCOCC2)S(=O)(=O)c2ccc(-c3ccc(Cl)cc3)s2)CC=CCN1O` (stereo not drawn) [Compound 93]: the half-inhibitory concentration (IC50) turned out to be 17.2 nM in assay [1] and 16.4 nM in assay [2].
As for `Cc1ccc(C#Cc2ccc(N(Cc3cccn(O)c3=O)S(C)(=O)=O)cc2)cc1` [Compound 55, N-(1-Hydroxy-2-oxo-1,2-dihydro-pyridin-3-ylmethyl)-N-(4-p-tolylethynyl-phenyl)-methanesulfonamide], the IC50 in assay [1] and in assay [2] was greater than 10000 nM in each case.
As for `CN(c1cccn(O)c1=O)S(=O)(=O)c1ccc(-c2ccc(Cl)cc2)cc1` [Compound 36, 4′-Chloro-biphenyl-4-sulfonic acid (1-hydroxy-2-oxo-1,2-dihydro-pyridin-3-yl)-methyl-amide], the values for the IC50 in assay [1] and in assay [2] were 1800 nM and 1300 nM, respectively.
On to `COc1ccc(Oc2ccc(S(=O)(=O)Cc3cccn(O)c3=O)cc2)cc1` [Compound 97], for which the figures for the half-maximal inhibitory concentration (IC50) in assay [1] and in assay [2] (read-out: MMP-2 nM IC50) were 7.26 nM and 17.3 nM, respectively.
For `O=C1[C@H](NS(=O)(=O)c2ccc(Oc3ccc(C(F)(F)F)cc3)cc2)CC=CCN1O` [Compound 5, N-(1-Hydroxy-2-oxo-2,3,4,7-tetrahydro-H-azepin-3-(R)-yl)-4-(4-trifluoro-methyl-phenoxy)-benzenesulfonamide], the results for the half-maximal inhibitory concentration (IC50) in assay [1] and in assay [2] were 2.04 nM and 1.79 nM, respectively.
`O=c1c(O)cccn1CS(=O)(=O)c1ccc(Oc2ccc(OC(F)(F)F)cc2)cc1` [Compound 62, 3-Hydroxy-1-[4-(4-trifluoromethoxy-phenoxy)-benzenesulfonylmethyl]-1H-pyridin-2-one]: the figures for the 50% inhibitory concentration (IC50) in assay [1] and in assay [2] were 4.91 nM and 13.6 nM, respectively.
For `Cc1ccc(C#Cc2ccc(N(Cc3cccn(O)c3=S)S(C)(=O)=O)cc2)cc1` [Compound 56, N-(1-Hydroxy-2-thioxo-1,2-dihydro-pyridin-3-ylmethyl)-N-(4-p-tolylethynyl-phenyl)-methanesulfonamide], in that order: greater than 10000 nM and greater than 10000 nM.
For `Cc1ccc(N(C)S(=O)(=O)c2ccc(Oc3ccc(Cl)cc3)cc2)c(=O)n1O` [Compound 33, 4-(4-Chloro-phenoxy)-N-(1-hydroxy-6-methyl-2-oxo-1,2-dihydro-pyridin-3-yl)-N-methyl-benzenesulfonamide], the half-inhibitory concentration (IC50) came out at 34.9 nM in assay [1] and 66.4 nM in assay [2] (read-out: MMP-2 nM IC50).
Consider `O=C1[C@H](NS(=O)(=O)Cc2ccc(Cl)cc2)CC=CCN1O` [Compound 15, (4-Chloro-phenyl)-N-(1-hydroxy-2-oxo-2,3,4,7-tetrahydro-1H-azepin-3-(R)-yl)-methanesulfonamide], for which the IC50 in assay [1] and in assay [2] was greater than 1000 nM in each case.
As for `O=C1C(S(=O)(=O)c2ccc(Oc3ccc(OC(F)(F)F)cc3)cc2)CCCCN1O` (stereo not drawn) [Compound 71, 1-Hydroxy-3-[4-(4-trifluoromethoxy-phenoxy)-benzenesulfonyl]-azepan-2-one], the 50% inhibitory concentration (IC50) in assay [1] stood at 44.4 nM; in assay [2] it was 110 nM.
With `O=c1c(COc2ccc(-c3ccc(Br)cc3)cc2)cccn1O` [Compound 41, 3-(4′-Bromo-biphenyl-4-yloxymethyl)-1-hydroxy-1H-pyridin-2-one], the figures for the IC50 in assay [1] and in assay [2] were 7140 nM and greater than 10000 nM, respectively.
Regarding “4-(4-Chloro-phenoxy)-N-(1-hydroxy-2-oxo-2,3,4,7-tetrahydro-1H-azepin-3-(R)-yl)-benzenesulfonamide [Compound 1]”, the figures for the concentration for half-maximal inhibition (IC50) in assay [1] and in assay [2] (read-out: MMP-2 nM IC50) were 0.78 nM and 0.81 nM, respectively.
Consider “N-(1-Hydroxy-2-oxo-1,2-dihydro-pyridin-3-yl)-N-methyl-4-p-tolyloxy-benzene-sulfonamide [Compound 26]”, for which the IC50 in assay [1] was 3.4 nM; in assay [2] (read-out: MMP-2 nM IC50) it was 6.1 nM.
With `O=C1C(S(=O)(=O)c2ccc(-c3nc4cc(F)ccc4[nH]3)cc2)CCCCN1O` (stereo not drawn) [Compound 78, 3-[4-(5-Fluoro-1H-benzoimidazol-2-yl)-benzenesulfonyl]-1-hydroxy-azepan-2-one], the IC50 turned out to be 846 nM in assay [1] and 377 nM in assay [2] (read-out: MMP-2 nM IC50).
For the compound `O=C1[C@H](NS(=O)(=O)c2ccc(Oc3ccccc3)cc2)CC=CCN1O` [Compound 3, N-(1-Hydroxy-2-oxo-2,3,4,7-tetrahydro-1H-azepin-3-(R)-yl)-4-phenoxy-benzenesulfonamide], the IC50 in assay [1] turned out to be 1.76 nM; in assay [2], 1.07 nM.
With `O=S(=O)(c1ccc(Oc2ccccc2)cc1)N(Cc1ccccc1)c1cccn(O)c1=S` [Compound 23, N-Benzyl-N-(1-hydroxy-2-thioxo-1,2-dihydro-pyridin-3-yl)-4-phenoxy-benzene-sulfonamide], the half-inhibitory concentration (IC50) in assay [1] turned out to be 693 nM; in assay [2] (read-out: MMP-2 nM IC50), 4590 nM.
As for `COc1ccc2[nH]c(-c3ccc(S(=O)(=O)C4CCCCN(O)C4=O)cc3)nc2c1` (stereo not drawn) [Compound 77, 1-Hydroxy-3-[4-(5-methoxy-1H-benzoimidazol-2-yl)-benzenesulfonyl]-azepan-2-one], the IC50 in assay [1] and in assay [2] was greater than 1000 nM in each case.
On to `Cc1ccc(Oc2ccc(S(=O)(=O)Cn3cccc(O)c3=O)cc2)cc1` [Compound 61, 3-Hydroxy-1-(4-p-tolyloxy-benzenesulfonylmethyl)-1H-pyridin-2-one], for which the 50% inhibitory concentration (IC50) in assay [1] was 45.8 nM; in assay [2] (read-out: MMP-2 nM IC50), 16.7 nM.
Take `Cc1ccc(Oc2ccc(N(Cc3c(C)ccn(O)c3=O)S(C)(=O)=O)cc2)cc1` [Compound 48, N-(1-Hydroxy-4-methyl-2-oxo-1,2-dihydro-pyridin-3-ylmethyl)-N-(4-p-tolyloxy-phenyl)-methanesulfonamide]: the IC50 was 457 nM in assay [1] and greater than 1000 nM in assay [2].
